Source: patent US20060292158A1, “Method for the treatment of cancer using a novel pharmaceutical composition containing at least one dolastatin 10 derivative” (priority 2004, published 2006)
Where two headings read alike, the source gives them in different places.

Key:
[1] = test system: MAXF-401 human breast carcinoma xenograft; test: Antitumor activity in MAXF-401 subcutaneous xenograft in athymic nude mice, combination with capecitabine (Example 3); format: in vivo; conditions: monotherapy 3, 4 or 6 mg/kg; one week after final injection; 2.5% DMSO control
Experimental: The MAXF-401 human breast carcinoma cell line was obtained from Prof Fiebig (University of Freiburg, Germany). This cell line was maintained in mice; the tumor fragments were implanted subcutaneously and serially passaged in mice prior to use.
One hundred (100) 5-week-old female athymic nude mice (BALB/c nu/nu) were purchased from Charles River Japan, Inc. (Yokohama, Japan). The mice were housed in an air-conditioned room (temperature 22±2° C., relative humidity 55±10%) under 12 h light/dark cycles. The mice were given sterilized CE-2 and tap water with 25μg/mL gentamycin ad libitum. […]
The in vivo evaluation procedure for anticancer drugs was based on the methods described by Plowman, et al. (1997) for xenograft models. […] The tumor volume and body weight of each mouse were measured twice a week. […] One week after the final injection, tumor growth inhibition (TGI) was calculated using the formula (1-T/C)×100 (%), where T (treated group) and C (control group) represent the mean tumor volume change. ED50 values were calculated from values of tumor growth inhibition on day 21 using the XL fit program. […]
Packaged software (SAS preclinical package version 5.0,SAS Institute Japan, Ltd.) was used for the statistical analysis. […] ED50s were calculated from values of tumor growth inhibition percentage using XL fit program #509 (MS Excel Add Version 3.0.5 Build -In: XLfit3 12, ID Business Solutions Ltd.)

[2] = test system: HT-29 human colorectal adenocarcinoma xenograft; format: in vivo; conditions: day 31
Experimental: The HT-29 human colorectal adenocarcinoma cell line was purchased from American Type Culture Collection (Rockville, MD, U.S.A.). The cells were cultured in McCoy's 5a medium (Sigma-Aldrich Corporation, MO, U.S.A.) supplemented with 10% (v/v) fetal bovine serum (Roche Diagnostics KK, Tokyo, Japan).
Sixty of 5-week-old male athymic nude mice (BALB/c nu/nu) were purchased from Charles River Japan, Inc. (Yokohama, Japan). All mice were kept for 9 days in the animal facility of Kamakura Research Laboratories of Chugai Pharmaceutical Co., Ltd. before subjection to the experiment.
Capecitabine was dissolved by the 40 milli mol/L citrate buffered-5% Gum arabic solution (pH 6.0; Chugai Pharmaceutical Co., Ltd.).
The in vivo evaluation procedure for anticancer drugs was based on the methods described by Plowman, et al. (1997) for xenograft models. See, “Anticancer Drug Development Guide: Preclinical Screening, Clinical Trials, and Approval, Teicher B (ed) pp. 101-125, specifically Chap. 6, “Human Tumor Xenograft Models in NCI Drug Development”, hereby incorporated by reference. A single cell suspension of HT-29 (1.1×10^7 cells per mouse) was inoculated subcutaneously into the right flank of each mouse. The tumor volume was estimated by using the equation ab^2/2, where a and b represent tumor length and width, respectively. Mice bearing tumors of between 172 and 282 mm^3 were selected on day 10 after tumor inoculation and were randomly divided into 7 groups, consisting of 6 mice each. Mean tumor volume and body weight of the selected mice were 217 mm^3 and 25.0 g respectively. Drug administration was initiated after mice were divided into groups. […] Capecitabine (359 mg/kg or 539 mg/kg) and its vehicle were administered orally. Tumor volume and body weight of each mouse were measured twice a week. […] Tumor growth inhibition was calculated using the equation (1-ΔT/ΔC)×100, where ΔT represents the difference in tumor volume from the initial treatment date of the treated group and ΔC represents the difference in tumor volume from the initial treatment date of the vehicle group.

[3] = Maximum tolerated dose (neither lethality nor more than 20% body weight loss) in mice; conditions: BALB/c nu/nu (athymic nude), mouse, in vivo, dose with neither lethality nor more than 20% body weight loss
Source text: The in vivo evaluation procedure for anticancer drugs was based on the methods described by Plowman, et al. (1997) for xenograft models. See, “Anticancer Drug Development Guide: Preclinical Screening, Clinical Trials, and Approval, Teicher B (ed) pp. 101-125, specifically Chap. 6, “Human Tumor Xenograft Models in NCI Drug Development”, hereby incorporated by reference.
See, “Anticancer Drug Development Guide: Preclinical Screening, Clinical Trials, and Approval, Teicher B (ed) pp. 101-125, specifically Chap. 6, “Human Tumor Xenograft Models in NCI Drug Development”, hereby incorporated by reference.
The in vivo evaluation procedure for anticancer drugs was based on the methods described by Plowman, et al. (1997) for xenograft models. See, “Anticancer Drug Development Guide: Preclinical Screening, Clinical Trials, and Approval, Teicher B (ed) pp. 101-125, specifically Chap.

CC[C@H](C)[C@@H]([C@@H](CC(=O)N1CCC[C@H]1[C@H](SC)[C@@H](C)C(=O)N(C)CCc1cccc(O)c1)OC)N(C)C(=O)[C@@H](NC(=O)[C@H](C(C)C)N(C)C)C(C)C [compound of formula (I-A), N-[1-({1-sec-Butyl-4-[2-(2-{[2-(3-hydroxy-phenyl)-ethyl]-methyl-carbamoyl}-1-methylsulfanyl-propyl)-pyrrolidin-1-yl]-2-methoxy-4-oxo-butyl}-methyl-carbamoyl)-2-methyl-propyl]-2-dimethylamino-3-methyl-butyramide]
volume of tumor in comparison with control [1]: decreased significantly | reduction of tumor growth ([2]; 3 mg/kg (1/2 MTD) i.v. weekly x3): 76% | reduction of tumor growth ([2]; 4 mg/kg (2/3 MTD) i.v. weekly x3): 101% | MTD [3]: 6 mg/kg
